The text below walks through data of ChEMBL document CHEMBL1144076, “New guaianolides and xanthine oxidase inhibitory flavonols from ajania fruticulosa” (J Nat Prod, 1999).

Molecules are shown by their SMILES. pIC50: −log10 of the molar value.

One may read the pIC50 as the negative decadic logarithm of the IC50, by convention in mol/L. Lower therefore signals a high IC50.

The assay concerns the target Xanthine dehydrogenase/oxidase (Homo sapiens, UniProt P47989). The assay can be described thus: Inhibition of xanthine oxidase by spectrophotometry.

Sequence of Xanthine dehydrogenase/oxidase (P47989 whole entry): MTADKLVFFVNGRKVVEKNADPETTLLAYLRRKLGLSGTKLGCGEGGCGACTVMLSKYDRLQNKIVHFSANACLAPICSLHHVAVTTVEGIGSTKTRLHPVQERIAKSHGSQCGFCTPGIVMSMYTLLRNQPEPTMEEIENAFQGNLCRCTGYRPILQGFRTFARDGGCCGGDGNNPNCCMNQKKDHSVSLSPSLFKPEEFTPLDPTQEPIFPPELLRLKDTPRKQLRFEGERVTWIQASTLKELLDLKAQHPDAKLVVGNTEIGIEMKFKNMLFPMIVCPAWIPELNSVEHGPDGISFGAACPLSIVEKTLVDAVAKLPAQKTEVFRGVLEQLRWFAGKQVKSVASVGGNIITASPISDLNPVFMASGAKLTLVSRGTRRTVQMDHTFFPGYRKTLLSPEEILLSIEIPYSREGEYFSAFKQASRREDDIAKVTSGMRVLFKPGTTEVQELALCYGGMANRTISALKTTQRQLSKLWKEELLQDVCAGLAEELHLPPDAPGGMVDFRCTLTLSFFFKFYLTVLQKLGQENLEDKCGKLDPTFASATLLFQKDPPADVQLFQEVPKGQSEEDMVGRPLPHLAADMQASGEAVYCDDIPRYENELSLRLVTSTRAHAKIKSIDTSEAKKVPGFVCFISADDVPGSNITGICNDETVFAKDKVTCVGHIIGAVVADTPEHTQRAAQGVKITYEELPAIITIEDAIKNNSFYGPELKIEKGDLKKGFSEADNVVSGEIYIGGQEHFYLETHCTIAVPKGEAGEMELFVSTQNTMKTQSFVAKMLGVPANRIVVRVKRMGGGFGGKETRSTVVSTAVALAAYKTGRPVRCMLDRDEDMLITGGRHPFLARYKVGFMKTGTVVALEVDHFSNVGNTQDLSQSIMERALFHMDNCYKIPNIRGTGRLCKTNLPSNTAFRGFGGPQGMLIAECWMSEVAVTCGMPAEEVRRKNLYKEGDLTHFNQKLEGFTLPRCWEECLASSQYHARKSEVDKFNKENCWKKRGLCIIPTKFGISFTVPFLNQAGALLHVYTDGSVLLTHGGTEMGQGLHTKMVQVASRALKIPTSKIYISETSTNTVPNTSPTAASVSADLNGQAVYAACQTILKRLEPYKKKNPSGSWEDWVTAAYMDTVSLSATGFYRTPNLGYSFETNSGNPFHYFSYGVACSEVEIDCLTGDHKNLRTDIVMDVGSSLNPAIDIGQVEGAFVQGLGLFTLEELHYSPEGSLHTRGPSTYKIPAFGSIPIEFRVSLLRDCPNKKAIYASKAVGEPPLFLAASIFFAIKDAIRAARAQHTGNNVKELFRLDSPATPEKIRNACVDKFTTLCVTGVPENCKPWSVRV

For the compound `COc1c(O)cc2oc(-c3ccc(O)c(O)c3)c(OC)c(=O)c2c1O` [AXILLARIN], the pIC50 is 4.44.

In turn, `COc1ccc(-c2oc3cc(O)c(OC)c(O)c3c(=O)c2OC)cc1` [SANTIN] gave a pIC50 of 4.44.
